Laboratory results as given in article PMC6273328, “Simultaneous Determination of Purpurin, Munjistin and Mollugin in Rat Plasma by Ultra High Performance Liquid Chromatography-Tandem Mass Spectrometry: Application to a Pharmacokinetic Study after Oral Administration of Rubia cordifolia L. Extract” (Molecules, 2016).
Like-named read-outs stand apart in the source and are kept apart here.

Experiments:
[1] = Stability of the analytes in rat plasma (QC samples); format: in vitro ADME; conditions: n = 6; for Stability (% RE) Post-Preparative: extracted plasma samples, 12 h at 4 °C after preparation; for Stability (% RE) Short-Term / Stability (% RE) Long-Term / Stability (% RE) Three Freeze-Thaw: rat plasma; for Stability (% RE) Short-Term: 4 h at ambient temperature; for Stability (% RE) Long-Term: storage for 2 weeks at −20 °C; for Stability (% RE) Three Freeze-Thaw: three freeze (−20 °C) and thaw cycles
Description: To study the stability, QC samples of the three analytes at three QC levels (LQC, MQC, and HQC) were added into drug-free plasma samples and each levels contained six replicates. Four different manipulations were designed to assess the stability involving short-term stability (storage for 4 h at ambient temperature), long-term stability (storage for 2 weeks at −20 °C), freeze-thaw stability (three freeze at −20 °C and thaw cycles), and post-preparative stability (storage for 12 h after sample preparation at 4 °C). A series of concentrations of stability testing QC samples was obtained by the calibration curve which was established from freshly prepared standard samples.

[2] = Pharmacokinetic study in rats after oral administration of R. cordifolia extract (UHPLC-MS/MS of plasma); format: in vivo, Sprague-Dawley (SD) rats; conditions: male, Sprague-Dawley
Description: The UHPLC-MS/MS method described herein was applied to investigate the pharmacokinetics of the three constituents in R. cordifolia after a single oral administration of 0.82 g/kg of extract (equivalent to 6.3 μg/g for mollugin, 1.3 μg/g for munjistin, and 0.68 μg/g for purpurin) to twelve rats. We determined the oral dosage for the rats corresponding to the human dosage recommended in the Chinese Pharmacopoeia (2015 edition). The human dosage of R. cordifolia in the Chinese Pharmacopoeia is 10 g/day, so we calculated the final oral dosage as 0.82 g/kg in rats based on the Meeh-Rubn method.
Twelve male Sprague-Dawley (SD) rats (body weight 220 ± 20 g) were obtained from the experimental animal center of Harbin Medical University and adapted to a constant-temperature (25 °C) room. The animal handling procedures were approved by the institutional ethics committee and conformed to the principles of the International Guide for the Care and Use of Laboratory Animals. Before the experiment, the rats were fasted for 12 h and had access to water during the research period. Blood (0.4 mL) was collected from the orbital venous plexus at several specific time points (0, 0.33, 0.67, 1, 1.3, 1.67, 2, 2.5, 3, 4, 6, 8, 12 and 24 h) after the oral administration of R. cordifolia (0.82 g/kg). After centrifugation at 12000 rpm for 5 min, the plasma was collected immediately and stored at −20 °C until sample analysis.
Before the experiment, the plasma samples were thawed naturally at room temperature. As a liquid-liquid extraction method, 100 μL of methanol and 50 μL of I.S. (2000 ng/mL) were added to a rat plasma sample (100 μL), and then the content was mixed by a vortex mixer for 30 s. After this step, a 3 mL aliquot of ethyl acetate (extraction agent) was accurately added and the mixture vortexed for 60 s. Then the samples were put into a centrifuge. The organic supernatant was pipetted into clean glass tubes individually after centrifugation 4000 rpm for 5 min. The upper organic layer was removed and evaporated to dryness at 40 °C under a stream of nitrogen. The residue was then reconstituted with 100 μL of mobile phase (5 mM ammonium acetate in water/methanol, 10:90, v/v), vortexed for 30 s and filtered by a 0.22 μm membrane. A 5 μL aliquot of the solution was injected into the UHPLC-MS/MS system for analysis.
Noncompartmental methods were applied to calculate the following pharmacokinetic parameters. The peak plasma concentration (Cmax) and the time of maximum plasma concentration (Tmax) were observed directly from the measured data. The elimination rate constant (Ke) was calculated using the linear regression of the terminal points in a semi-log plot of the plasma concentration against time. The elimination half-life (t1/2) was calculated using the formula: t1/2 = 0.693/Ke
The area under the peak plasma concentration-time curve (AUC0→t) to the last measurable plasma concentration (Ct) was estimated using the linear trapezoidal rule. The area under the plasma concentration-time curve to time infinity (AUC0→∞) was calculated as following: AUC0→∞ = AUC0-t + Ct/Ke

[3] = medium QC (26.4/51.5/245 ng/mL)
[4] = high QC (211/412/1960 ng/mL purpurin/munjistin/mollugin)
[5] = low QC (0.528/1.03/4.90 ng/mL purpurin/munjistin/mollugin)
[6] = medium QC (26.4/51.5/245 ng/mL purpurin/munjistin/mollugin)

Row | Stability (% RE) Post-Preparative ([1]; high QC (211/412/1960 ng/mL)) [% RE] | Stability (% RE) Post-Preparative ([1]; low QC (0.528/1.03/4.90 ng/mL)) [% RE] | Stability (% RE) Post-Preparative [1, 3] [% RE] | Stability (% RE) Short-Term ([1]; high QC (211/412/1960 ng/mL)) [% RE] | Stability (% RE) Short-Term ([1]; low QC (0.528/1.03/4.90 ng/mL)) [% RE] | Stability (% RE) Short-Term [1, 3] [% RE] | Stability (% RE) Long-Term ([1]; high QC (211/412/1960 ng/mL)) [% RE] | Stability (% RE) Long-Term ([1]; low QC (0.528/1.03/4.90 ng/mL)) [% RE] | Stability (% RE) Long-Term [1, 3] [% RE] | Stability (% RE) Three Freeze-Thaw [1, 4] [% RE] | Stability (% RE) Three Freeze-Thaw [1, 5] [% RE] | Stability (% RE) Three Freeze-Thaw [1, 6] [% RE] | AUC(0-inf) ([2]; rat, in vivo, po, 0.82 g/kg) [ng·h/mL] | AUC(0-t) ([2]; rat, in vivo, po, 0.82 g/kg) [ng·h/mL] | Cmax ([2]; rat, in vivo, po, 0.82 g/kg) [ng/mL] | Tmax ([2]; rat, in vivo, po, 0.82 g/kg) [h] | half-life ([2]; rat, in vivo, po, 0.82 g/kg) [h] | SMILES | also measured
1 | 13.68 | −14.02 | −2.00 | 14.76 | −13.38 | −5.35 | 12.08 | −2.59 | −2.68 | 14.76 | 1.92 | −5.35 | 243 ± 35.9 | 206 ± 36.1 | 70.1 ± 11.8 | 1.61 ± 0.24 | 9.52 ± 2.68 | O=C1c2ccccc2C(=O)c2c(O)c(O)cc(O)c21 [Purpurin, purpurin] | 
2 | 14.38 | 11.15 | 0.65 | −8.69 | 9.90 | −4.35 | −8.55 | 4.57 | −0.17 | −13.17 | 10.26 | 8.78 |  |  |  |  |  | COC(=O)c1c2c(c3ccccc3c1O)OC(C)(C)C=C2 [Mollugin, mollugin] | half-life ([2]; rat plasma, single oral 0.82 g/kg R. cordifolia extract, mean ± SD, n = 12, non-compartment model, read-out: t1/2 (converted)): 9.02 ± 2.14 h; AUC(0-t) ([2]; rat plasma, single oral 0.82 g/kg R. cordifolia extract, mean ± SD, n = 12, read-out: AUC0→t): 232 ± 57.6 ng·h/mL; AUC(0-inf) ([2]; rat plasma, single oral 0.82 g/kg R. cordifolia extract, mean ± SD, n = 12, read-out: AUC0→∞): 296 ± 40.9 ng·h/mL; Cmax ([2]; rat plasma, single oral 0.82 g/kg R. cordifolia extract, mean ± SD, n = 12, read-out: Cmax): 52.1 ± 6.71 ng/mL; Tmax ([2]; rat plasma, single oral 0.82 g/kg R. cordifolia extract, mean ± SD, n = 12, read-out: Tmax): 1.99 ± 0.21 h
3 | −10.15 | 11.15 | 7.04 | 7.31 | 11.56 | 6.73 | −0.77 | 13.97 | 5.56 | −2.82 | 9.04 | 9.46 | 136 ± 21.2 | 110 ± 20.1 | 26.1 ± 6.59 | 2.58 ± 0.19 | 9.22 ± 2.75 | O=C1c2ccccc2C(=O)c2c1cc(O)c(C(=O)O)c2O [Munjistin, munjistin] | 
